Test results reported in PMC5394417, “Investigating the molecular mechanism of positive and negative allosteric modulators in the calcium-sensing receptor dimer” (Scientific Reports, 2017).

Target: T1, HA-S170A/D190A CaSR mutant (Rattus norvegicus, UniProt P48442, D190A/S170A)
T1 construct: mGluR5 signal peptide (N); expressed in transfected cells; host or cells: HEK293T
T1 sequence (P48442 20-1079 S170A/D190A): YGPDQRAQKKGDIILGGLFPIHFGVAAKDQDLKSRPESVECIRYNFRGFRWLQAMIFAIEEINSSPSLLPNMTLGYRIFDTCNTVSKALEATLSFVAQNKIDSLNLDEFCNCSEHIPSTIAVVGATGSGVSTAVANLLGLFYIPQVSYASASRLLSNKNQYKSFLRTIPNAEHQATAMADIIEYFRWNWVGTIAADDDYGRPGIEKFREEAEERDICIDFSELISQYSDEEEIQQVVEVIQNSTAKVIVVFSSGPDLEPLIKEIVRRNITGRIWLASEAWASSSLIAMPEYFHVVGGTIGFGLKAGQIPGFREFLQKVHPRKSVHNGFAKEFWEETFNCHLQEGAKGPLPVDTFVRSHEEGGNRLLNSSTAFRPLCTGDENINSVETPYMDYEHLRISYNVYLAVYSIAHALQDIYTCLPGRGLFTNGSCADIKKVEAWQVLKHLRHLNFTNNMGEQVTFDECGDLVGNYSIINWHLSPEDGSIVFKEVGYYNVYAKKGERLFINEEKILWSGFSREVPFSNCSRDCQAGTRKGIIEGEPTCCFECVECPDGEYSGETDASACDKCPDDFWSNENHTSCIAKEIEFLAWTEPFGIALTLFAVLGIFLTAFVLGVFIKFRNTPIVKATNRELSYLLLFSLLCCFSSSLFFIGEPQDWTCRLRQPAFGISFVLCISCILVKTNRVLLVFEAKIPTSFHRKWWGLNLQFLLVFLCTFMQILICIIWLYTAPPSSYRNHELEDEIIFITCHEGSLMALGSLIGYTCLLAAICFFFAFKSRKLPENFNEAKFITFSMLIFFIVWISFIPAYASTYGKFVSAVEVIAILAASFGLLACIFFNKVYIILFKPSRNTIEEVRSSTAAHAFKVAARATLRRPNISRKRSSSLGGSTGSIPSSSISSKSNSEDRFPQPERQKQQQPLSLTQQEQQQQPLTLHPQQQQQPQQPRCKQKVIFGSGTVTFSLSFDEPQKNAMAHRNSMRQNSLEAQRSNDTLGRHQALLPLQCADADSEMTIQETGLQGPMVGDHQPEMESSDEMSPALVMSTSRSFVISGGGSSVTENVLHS
Test: IP-One assay, HEK293T transiently transfected
Format: cell-based
Protocol: Human embryonic kidney (HEK) 293T cells were cultured in DMEM supplemented with 10% dFBS and 1% P/S at 37 °C and 5% CO2. 48 h prior to assay, transient transfection was performed using Lipofectamine 2000 as the transfection reagent. White opaque 96-well culture plates (PerkinElmer, Waltham, MA, USA) were used for the ELISA and the TR-FRET dimerization assay, while clear tissue culture treated 96-well plates (Corning, Corning, NY, USA) were used for the IP-One assay. Both plate types were coated with poly-D-lysine before addition of cells and transfection mix. 0.25 μl/well of Lipofectamine 2000 were diluted in 25 μl/well of Opti-MEM and incubated at room temperature (RT) for 5 min. 0.03 μg/well of DNA was diluted in 25 μl/well of Opti-MEM, and subsequently mixed with the Lipofectamine 2000 dilution and incubated 20 min at RT before addition to the plates. Cell suspensions of 170.000 HEK293T cells/mL were prepared in complete growth medium and 100 μl/well (17.000 cells/well) was added to the plates, which were incubated for 48 h at 37 °C and 5% CO2 before performing assays.
Functional activity was measured using the IP-One assay, which is an IP1 accumulation assay. For agonist testing, ligands were prepared in final concentrations in ligand buffer (HBSS, 20 mM HEPES, pH 7.4 supplemented with 20 mM LiCl). Cells were washed once with 100 μl/well of assay buffer (HBSS, 20 mM HEPES, pH 7.4) and 50 μl/well of agonist solution was added after which plates were incubated at 37 °C for 30 min. Subsequently, ligand solutions were removed and cells were washed with 100 μl/well of assay buffer. Cell lysis was performed by addition of 30 μl/well of IP-One Conjugate & Lysis Buffer (Cisbio Bioassays, Codolet, France) and plates were incubated at RT for 30 min. Afterwards, 30 μl/well of assay buffer was added to dilute the cell lysate. 10 μl/well of cell lysate was transferred from the 96-well plate to a 384-well Optiplate and 10 μl/well of detection solution (Assay buffer + 2.5% of anti-IP1 antibody cryptate Terbium conjugate + 2.5% IP1-d2 conjugate (Cisbio Bioassays, Codolet, France)) was also added. The 384-well plate was incubated for 1 h at RT in dark before being measured on an EnVision plate reader (PerkinElmer, Waltham, MA, USA). Upon excitation at 340 nm, emission at 615 nm and 665 nm was measured, and the FRET ratio (665 nm/615 nm) was converted to IP1 concentrations by interpolating values from an IP1 standard curve generated from a provided IP1 calibrator (Cisbio Bioassays, Codolet, France). When testing allosteric modulators, cells were pre-incubated for 30 min at 37 °C with 50 μl/well of ligand buffer supplemented with allosteric modulator and a final concentration of 1% DMSO. Afterwards, the buffer solution was removed and 50 μl/well of agonist solution in ligand buffer supplemented with allosteric modulator and a final concentration of 1% DMSO was added. Plates were incubated for 30 min at 37 °C followed by one wash in 100 μl/well of assay buffer. Cell lysis and detection was performed as described above.

EC50 (Ca^2+ alone): 31.8 mM
Hill coefficient ± S.E.M. (Ca^2+ alone): 4.05 ± 0.43
pEC50 ± S.E.M. (Ca^2+ alone): 1.50 ± 0.04
Max ± S.E.M. (normalized to maximum response of WT CaSR): 49 ± 2.5%
SMILES: [Ca+2] [Ca^2+]
